Results reported in a melting point compilation (Tetko et al.; mined from patent text by program, amines drawn as free bases though some values may be those of a salt).

With `c1ccc(Nc2nsc3ccccc23)nc1` the melting point was 247 to 249 °C. `C#CCCCOc1c(C)cc(C#N)cc1C` showed a melting point of 48 to 49 °C. Work on `CCn1ccc(-c2cccc(-c3ccnc4c(C(=O)c5cccs5)cnn34)c2)n1` yielded a melting point of 61 °C. Work on `CCCCCC(=O)c1c(Cn2cncn2)nc2cc(OC)c(OC)cc2c1-c1ccc(OC)c(OC)c1` yielded a melting point of 151 to 152 °C. With `COCC(C#N)=Cc1cc(OC)c(OC)c(OC)c1` the melting point was 79 to 81 °C. In the case of `c1ccc(-c2c[nH]nc2-c2ccccc2)cc1`, the melting point is reported as 150 to 152 °C. With `NC(=O)c1cn(-c2ccc(Cl)c(Cl)c2)cn1` the melting point was 244 to 245 °C. Compound `COc1cc(C(=O)c2c[nH]c(-c3ccc(C)cc3)n2)cc(OC)c1OC` has a melting point of 201 to 203 °C. `Cc1c(C)c(N2CCN(Cc3ccccc3)CC2)c(C)c2c1OC(C)(C)C2(O)c1ccc(F)nc1` (centres undefined) gave a melting point of 105 to 109 °C. With `Cc1c(C)c2c(c(C)c1O)CCC(C)(COc1ccc(NC(=S)NC(c3ccccc3)c3ccccc3)cc1)O2` (centres undefined) the melting point was 146 to 148 °C. In the case of `CCS(=O)(=O)Nc1ccc2[nH]cc(C3=CCN(C)CC3)c2c1`, the melting point is reported as 224 to 226 °C. `CN(C)CCc1[nH]c2ccccc2c1CSc1ccc(Cl)cc1` showed a melting point of 115 to 117 °C. Work on `FC(F)(F)c1ccnc(Oc2ccc(CCNc3ncnc4nccnc34)cc2)c1` yielded a melting point of 147 to 149 °C. With `COCc1nc(C(C)(C)O)c(C(=O)OCc2oc(=O)oc2C)n1Cc1ccc(-c2ccccc2-c2nnn[nH]2)cc1` the melting point was 138 to 140 °C. Work on `Nc1cc(C(=O)O)c(Cl)cc1F` yielded a melting point of 153 to 155 °C. For `CCC(C)(CC)C(=O)O[C@H]1CCC=C2C=C[C@H](C)[C@H](CC[C@@H]3C[C@@H](O)CC(=O)O3)[C@H]21`, the melting point was 61 to 64 °C. In the case of `CC(=O)NC[C@H]1CN(c2ccc(N3C[C@@H]4C[C@H]3CS4)c(F)c2)C(=O)O1`, the melting point is reported as 90 to 95 °C. Work on `CSC(NCc1ccc(N)cc1)=C(C#N)C#N` yielded a melting point of 100 to 102 °C. `COc1cccc(C(CC(=O)O)SC)c1` (centres undefined) gave a melting point of 61 to 63 °C. With `c1cc2c3c(cccc3c1)C(NCCCCCCCCCCCCn1ccnc1)=N2` the melting point was 95 to 97 °C. For `CN(C)c1ccc(C=CC(O)c2cnc3sc4c(n23)CCCCC4)cc1` (centres undefined), the melting point was 168 to 170 °C. Work on `NC(=O)c1sc2ncnc(-c3cccc(NC(=O)Nc4cccnc4)c3)c2c1N` yielded a melting point of 199 to 200 °C. In the case of `COC1Cc2nc3cc(N)ccc3n2C1` (centres undefined), the melting point is reported as 140 to 142 °C. With `CCc1cc(C2(c3ccc(F)c(-c4cnccc4F)c3)N=C(N)N(C)C2=O)cc(CC)n1` (centres undefined) the melting point was 92 to 100 °C. For `Cc1cc(C)c(COc2cccc3c2C(=O)c2c(Cl)ccc(Cl)c2C3=O)c(C)c1`, the melting point was 216 to 218 °C. Compound `COc1ccc(C(=O)CCC(=O)O)cc1OC1CCCC1` has a melting point of 111 to 113 °C. Work on `COc1cccc(/C=C/C(=O)Nc2cccc(NC(=N)c3ccccc3)c2)c1` yielded a melting point of 148 to 149 °C. Work on `C#Cc1ccc(Nc2c(C(=O)c3ccccn3)ccc(F)c2F)c(F)c1` yielded a melting point of 109 to 111 °C. `COc1cc2c(cc1C(F)(F)F)N(C(=O)Nc1ccc(OCc3ccncc3)nc1)CC2` gave a melting point of 187 to 189 °C. `CCOc1cccc(-c2nc3n(n2)Cc2ccccc2-3)c1` showed a melting point of 166 to 167 °C. For `CN(C)CCc1nnc2n1-c1ccc(Cl)cc1C(c1ccccc1)NC2` (centres undefined), the melting point was 131 to 137 °C. Compound `COn1c(C)nc2c(NCc3c(C)cccc3C)cc(Br)cc21` has a melting point of 171 to 172 °C. Compound `CCOC(=O)C=Cc1cc(C(C)=O)ccc1OC` has a melting point of 90 °C. For `OCC1CC2CCC13CN(CC1CC1)CCC31c3cccc(O)c3OC21` (centres undefined), the melting point was 187 to 190 °C. Compound `CS(=O)(=O)O[C@@H]1C[C@@H](C(N)=O)N(C(=O)OCc2ccc([N+](=O)[O-])cc2)C1` has a melting point of 150 to 151 °C. Compound `CC1=C(C(=S)Cc2ccccc2)C(c2ccccc2)C2=C(N1)c1ccccc1C2=O` (centres undefined) has a melting point of 226 to 228 °C. In the case of `Cc1c(NC(=O)c2ccc(OCc3ccccc3)cc2)ccc2cc(CN3CCCCC3)cnc12`, the melting point is reported as 186 to 187 °C. Compound `Cc1oc(-c2ccncc2)nc1COc1ccc(Cn2cc(CCC(=O)O)c(-c3ccccc3)n2)cc1` has a melting point of 154 to 155 °C. With `CSc1ccc(-c2c(NN)nc(Cl)nc2-c2ccccc2)cc1` the melting point was 272 to 274 °C. In the case of `CCCC1(C(=O)NCCCCCO)c2ccccc2-c2ccccc21`, the melting point is reported as 48 to 51 °C. `Cc1nc(C#N)sc1-c1ccncc1` showed a melting point of 169 to 170 °C. Compound `N#Cc1c(N2CCc3ccccc3CC2)nc(C2CC2)[nH]c1=O` has a melting point of over 200 °C. Compound `CCOCCOC(=O)C1=C(C)NC(C)=C([N+](=O)[O-])C1c1cccc([N+](=O)[O-])c1` (centres undefined) has a melting point of 140 °C. `N#CCCNC(=O)c1cccc(-c2cccc3nn(Cc4cccc(F)c4)cc23)c1` showed a melting point of 170 to 171 °C. With `CC(CCc1ccccc1)NC1CCC(c2ccc(O)cc2)CC1` (racemic) the melting point was 44 to 49 °C. Compound `CN(O)C(=O)c1cccc2c1[nH]c1c3cc(Br)ccc3oc21` has a melting point of 174 to 175 °C. With `O=C(NC(Cc1c[nH]c2ccccc12)C(=O)O)C(S)Cc1ccccc1` (centres undefined) the melting point was 117 to 119 °C. With `CC(=O)SCCC(=O)N1[C@@H](c2ccccc2O)SC[C@H]1C(=O)N[C@@H](CCC(=O)O)C(=O)O` the melting point was 93 to 98 °C. With `CCc1ncnc2ccc(I)cc12` the melting point was 110 to 113 °C. Work on `COC(=O)c1c(C)nc2c(c1N(C)C)c1ccccc1n2C` yielded a melting point of 106 to 108 °C. With `O=C(O)COc1ccc2cc(-c3ccc(-c4ccccc4)n3Cc3ccccc3)ccc2c1` the melting point was 171 to 172 °C. Work on `Cc1ccc(S(=O)(=O)OC(C)COc2c([N+](=O)[O-])ccc(F)c2F)cc1` (centres undefined) yielded a melting point of 67 to 69 °C. With `O=c1cc(-c2ccc(O)cc2)oc2c([N+](=O)[O-])cccc12` the melting point was 299 to 301 °C. Work on `COC(=O)c1c(-c2ccncc2)[nH]c(-c2ccncc2)c1C` yielded a melting point of 245 to 247 °C. In the case of `C=CC(=O)OCCCCCCCCOc1ccc(-c2ccc(OCCCCCCCCOC(=O)C=C)c(F)c2)cc1F`, the melting point is reported as 56.1 to 57.9 °C. For `CN(C)c1ccc(C=C2Cc3cc4c(cc3C2=O)CCCC4)cc1`, the melting point was 161 to 163 °C. Work on `CCOC1CN(Cc2ccc(OC)cc2)Cc2cc(OC)c(OCc3ccccc3)cc21` (centres undefined) yielded a melting point of 84 to 85 °C. Compound `CC(C)c1c(CO)c(-c2ccc(F)cc2)nn1-c1ccccc1` has a melting point of 144 to 147 °C. Work on `COC(=O)CCc1oc(-n2ccnc2SC)nc1-c1ccc(Cl)cc1` yielded a melting point of 88 to 89 °C. Compound `CC(=O)Oc1cc2c(c3ccccc13)Nc1ccc(C)cc1S2` has a melting point of 193 to 195 °C. Work on `C[C@@H](N1CC(=O)N(c2ccc(OCC(F)(F)C(F)F)cc2)CC1=O)[C@@]1(c2ccc(F)cc2F)CO1` yielded a melting point of 155 to 156 °C. For `CCOC(=O)c1cn(Cc2ccccc2)nc1OCc1ccc(OCc2nc(-c3ccco3)oc2C)c(C)c1`, the melting point was 120 to 121 °C. Compound `CCCCOc1ccc(-c2ccc(=O)[nH]n2)cc1OC` has a melting point of 165 °C. Work on `CCC1(CCCCN2CCN(c3ccccn3)CC2)C(=O)Nc2ccc(Br)cc21` (centres undefined) yielded a melting point of 114 to 115 °C. `C=CCC12CC(=O)N(C)C1(O)CCc1ccc(OCc3ccccc3)cc12` (centres undefined) gave a melting point of 188 to 190 °C. For `Cc1nnc(N2N=C(c3cc(C)c([N+](=O)[O-])c(C)c3)c3cc4c(cc3C[C@H]2C)OCO4)o1`, the melting point was 132 to 133 °C. Compound `COC(=O)C1=C(C)NC(C)=C(C(=O)OCCN2CCN(C(c3ccccc3)c3ccccc3)CC2)C1c1ccco1` (centres undefined) has a melting point of 71 to 77 °C. With `O=C(NC(=O)c1c(F)cccc1F)Nc1cc(Cl)c(OCC(F)(F)F)cc1F` the melting point was 201 to 202 °C. With `Oc1cc(Br)cc(-c2ccc3nonc3c2)c1` the melting point was 179 to 181 °C.
